Data on 1 compound can be found in publication PMC10108345, “Differentiating Inhibition Selectivity and Binding Affinity of Isocitrate Dehydrogenase 1 Variant Inhibitors” (Journal of Medicinal Chemistry, 2023).

Molecules are shown by their SMILES.

For test [1], the target named is T1, IDH1 R132H (Homo sapiens, UniProt O75874, R132H).
T1 construct: made in house; host or cells: Escherichia coli BL21(DE3) pLyS
As to the kind of experiment: Non-denaturing MS binding, IDH1 R132H. The conditions noted are these: Figure S7b. The protocol: (§1) Non-denaturing mass spectra were obtained using a quadrupole time-of-flight mass spectrometer (Synapt HD MS, Waters, Manchester, UK).[44],[45] […] Protein concentrations were measured using a Nanodrop spectrometer (Thermo Scientific NanoDrop One). Compounds were dissolved in MeOH to avoid DMSO interference with mass spectra. IDH1 (20 μL of 50 μM final) and the compound of interest (1–4% (v/v) MeOH) in 200 mM ammonium acetate at pH 7.5 were pipetted into wells of a sample plate of an automated chip-based nano-electrospray ion source (TriVersa Nanomate, Advion, Ithaka, NY, USA). Compounds were serially diluted in buffer and mixed with IDH1 diluted in buffer. The mixture was sprayed through a nozzle in a Nanomate chip at a spray voltage of 1.8–2.0 kV (spray backing gas pressure 0.8–1.0 psi, inlet pressure 3.8 mbar). […] Data collection and analyses used Waters MassLynx software. Mass spectra were calibrated externally using CsI solution. KD values were calculated using eq 2 as reported[46] at each compound concentration and are reported as an average across multiple concentrations. For inhibitors with a binding stoichiometry of two inhibitors/IDH dimer, the inhibitor-bound protein peak intensity used was a sum of first and second inhibitor-bound protein peak intensities. Data for the IDH1 dimer m/z = 20^+ charge state are shown. For clarity, only 2× NADPH bound protein peaks are annotated.

Test [2] deals with T1, IDH1 R132H. Nature of the test: Ligand-observed 1H NMR (CPMG-edited, 700 MHz) binding, IDH1 R132H. The settings on record: line broadening, 10 μM inhibitor, 50 mM tris-D11-HCl pH 7.5. On the procedure: Additional solvent presaturation was applied for 2 s. Samples contained 160 μL of 10 μM compound (0.2% DMSO) in 50 mM tris-D11-HCl, pH 7.5 in 90% H2O/10% D2O (v/v). […] 200 or 400 scans per IDH concentration were recorded, and signals corresponding to the compound were integrated and processed using TopSpin 3.6.1 software.

The target of test [3] is T1, IDH1 R132H. Nature of the test: Absorbance turnover assay (NADPH, 340 nm), IDH1 R132H-catalyzed conversion of 2OG to 2HG. The class given is biochemical. The protocol:
IDH1 activities were measured spectrophotometrically by monitoring changes in NADPH absorbance at 340 nm.[10] […] The difference in absorbance, ΔA340, in the linear range of the reaction profile was converted to % residual activity using a DMSO control as the 100% residual activity reference. […] Experiments were performed in (at least) triplicate. The standard assay buffer for IDH1 consists of 100 mM tris–HCl, 10 mM MgCl2, 0.005% (v/v) Tween 20, pH 8.0, 0.2 mM DTT, and 0.1 mg/mL BSA. In general, compounds [25 μL, 0.4% (v/v) DMSO] were pre-incubated with IDH1 (25 μL) for 12 min, followed by addition of DL-isocitrate/2OG (25 μL) and NADP^+/NADPH (25 μL) to initiate the reaction. The substrate/cofactor concentrations were optimized by determining KM values for substrates/cofactors as described.[10]

In test [4] the target is T1, IDH1 R132H. Nature of the test: Isothermal titration calorimetry (ITC), IDH1 R132H. The format is binding. The settings on record: 40 μM IDH1, 50 mM tris-HCl pH 7.5, 25 °C. The protocol:
ITC was conducted using a Malvern MicroCal PEAQ-ITC Automated machine (Malvern Panalytical). In general, IDH1 was prepared in 50 mM tris–HCl, pH 7.5, and the compounds were dissolved in the same buffer. 400 μL of cell solution containing 40 μM IDH1 [4% (v/v) DMSO] and 200 μL of the titrant containing 200 or 400 μM compound [2% or 4% (v/v) DMSO] were transferred to an ITC plate (Malvern Panalytical WEL020854-010). […] The injection setup consisted of 19 injections, with 1 initial injection of 0.4 μL and 18 subsequent injections of 2.0 μL each with 150 s between the injections. Thermodynamic parameters were obtained using MicroCal PEAQ-ITC analysis software.
(In ITC the heat of successive injections is recorded.)

Test [5] addresses T1, IDH1 R132H. Nature of the test: Differential scanning fluorimetry (DSF) thermal shift, IDH1 R132H. The format is binding. The conditions noted are these: largest change in Tm of IDH1 ([…]) with 3-100 μM inhibitor. The protocol: Thermal shift experiments were carried out using Sypro Orange and a CFX96 Touch Real-Time PCR Detection System (Bio-Rad) machine.[42] […] The standard assay buffer contains 50 mM tris–HCl at pH 7.5. Various concentrations of compounds (1% DMSO final) were mixed with IDH1 for thermal stabilization studies. […] Bio-Rad CFX Manager was used to determine the melting temperature, Tm.
On the technique in general: DSF heats the sample and reads unfolding from a dye or from intrinsic fluorescence.

Test [6] deals with T2, wt IDH1 (Homo sapiens, UniProt O75874).
T2 construct: made in house; host or cells: Escherichia coli BL21(DE3) pLyS
Nature of the test: Non-denaturing MS binding, wt IDH1. The protocol: as §1

The target of test [7] is T1, IDH1 R132H. Nature of the test: Circular dichroism (CD) melting temperature, IDH1 R132H. The class given is binding. The conditions noted are these: inhibitor 42 μM, IDH 4.2 μM (0.2 mg/mL); read-out: Δ Tm/°C by CD IDH1 R132H. The protocol: CD spectra were acquired using a Chirascan CD spectrometer (Applied Photophysics) with a Peltier temperature-control cell holder. Experiments were carried out in a 0.1 cm path length quartz cuvette at 20 °C. […] Spectra were averaged (n = 3) and smoothed (window size = 7) using the Savitzky–Golay filter. The mean residue ellipticity (MRE) was calculated according to the formula [drawing 1] where θ is the degree of ellipticity, N is the number of amino acids, c is the concentration (mol/L), and l is the path length (cm).
Measurements were conducted in 2 °C increments. The melting temperature was calculated using a Boltzmann sigmoidal model in GraphPad Prism v5.04.
On the technique in general: Circular dichroism is the unequal absorption of left and right circularly polarised light.

T1 sequence (O75874 whole entry R132H): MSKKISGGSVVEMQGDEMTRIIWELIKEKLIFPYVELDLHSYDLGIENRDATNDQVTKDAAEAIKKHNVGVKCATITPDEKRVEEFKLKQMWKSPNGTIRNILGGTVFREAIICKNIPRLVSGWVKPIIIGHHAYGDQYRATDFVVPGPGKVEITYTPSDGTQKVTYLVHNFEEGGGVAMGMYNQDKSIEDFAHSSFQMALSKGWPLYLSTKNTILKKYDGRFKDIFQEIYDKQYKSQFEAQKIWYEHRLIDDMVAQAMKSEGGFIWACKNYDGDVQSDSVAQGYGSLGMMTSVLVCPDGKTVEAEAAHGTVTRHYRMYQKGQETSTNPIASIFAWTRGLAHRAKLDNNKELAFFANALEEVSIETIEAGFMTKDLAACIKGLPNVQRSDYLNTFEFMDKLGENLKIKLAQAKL
T2 sequence (O75874 whole entry): as the sequence (O75874 whole entry R132H) above, with H132R counted along it

By Kd is commonly meant the constant that tells how readily two partners part at equilibrium. The IC50 is the concentration that inhibits the measured activity by half. Read a high IC50 as a need for much substance. As to `Cc1ccccc1C(C(=O)NC1CCCCC1)N(C(=O)Cn1ccnc1C)c1cccc(F)c1` (stereo not drawn) [AGI-5198], the “stoichiometry, inhibitors per IDH1 dimer, IDH1 R132H” value in test [1] is reported as 1. Further, the Kd is 8.6 µM in test [2]; over 400 µM in test [4]; 608 µM in test [6] (IDH 50 μM, 200 mM ammonium acetate pH 7.5). Also, the “Selectivity against IDH1 R132H over IDH1 wt” value in test [3] (IC50 (IDH1 wt)/IC50 (IDH1 R132H)) was over 164. Further, it took 61 nM to reach half-maximal inhibition in test [3] (IDH1 R132H (30 nM), 2OG to 2HG, 100 mM tris-HCl, 10 mM MgCl2, pH 8.0) (IC50). In test [5], the “Δ Tm/°C by DSF IDH1 R132H” value turned out to be 6.0 °C. The “stoichiometry, inhibitors per IDH1 dimer, wt IDH1” value in test [6] (Figure S7a) is 1. The ΔTm at 42 µM in test [7] was found to be 7.7 °C.
